Measured values from patent US20240317725A1, “LPA1 SMALL MOLECULE ANTAGONIST” (TUOJIE BIOTECH (SHANGHAI) CO., LTD., priority 2021, published 2024).

Target: T1, human lysophosphatidic acid receptor 1 (LPAR1) (Homo sapiens, UniProt Q92633)
T1 construct: host or cells: CHO-K1 (Chinese hamster ovary K1) cells, CHO-K1/LPA1R, kept under hygromycin B selection
Assay: FLIPR test of antagonist properties: inhibition of LPA-induced intracellular calcium elevation in CHO-K1 cells expressing hLPAR1
Type: cell-based
Settings: FLIPR calcium assay, CHO-K1/LPA1R cells, LPA at EC80
Procedure: The antagonist properties of the compounds of the present disclosure were tested using the FLIPR (fluorometric imaging plate reader) method. The compounds are inhibitors of intracellular calcium elevation induced by activation of hLPARI (human lysophosphatidic acid receptor 1) expressed in CHO-K1 cells (Chinese hamster ovary K1 cells, HDB).
2.1. Reaction buffer: HBSS+20 mM HEPES+0.1% fatty acid-free BSA+0.001% F-127
2.2. 50×Red dye: (a red dye for blocking background signals in cells) prepared by: weighing out 4 g of tartrazine and 10.2 g of acid red and dissolving them in 100 mL of H2O.
2.3. Fluo-8 staining mixture: 4 mL of reaction buffer, 32 μL of fluo-8, 320 μL of 50×Red dye, and 40 μL of probenecid.
3.1. LPA: dissolved in DPBS (containing 0.1% fatty acid-free BSA) to prepare a 0.8 μM stock solution, and the solution was aliquoted and stored at −20° C.
3.2. Test compound preparation: The test compounds were dissolved in DMSO to prepare 10 mM stock solutions, and the solutions were stored at −20° C. In the experiment, the compounds were first gradient-diluted with DMSO (initial concentration of 50 μM, 3-fold dilution, 10 points) to prepare 200×compound solutions. The compound solutions were then diluted with reaction buffer to give 5×compound solutions, and the solutions were transferred to a 384-well plate (Cat. No. 6008590) using Bravo.
4.1. CHO-K1/LPA1R cells were cultured in a cell culture medium (F-12+10% FBS+400 μg/mL hygromycin B).
4.2. When the cell confluence reached 80%, the cells were digested with 0.25% pancreatin.
4.3. When the cells became round, the digestion was stopped with the medium F-12 (10% FBS), and the cells were counted. Then the cell culture was diluted with F-12 (10% FBS) to give a cell suspension with a density of 6.7×10^5 cells/mL.
4.4. The cell suspension was added to a 384-well black cell culture plate at 30 µL/well using a Multidrop auto-dispenser, and the plate was incubated in a 37° C., 5% CO2 incubator for 20-24 h. The medium was changed to a serum-free F-12 medium, and the cells were starved for 24 h.
4.5. Dose experiment for testing LPA. Gradient dilutions of 6×LPA solution (initial concentration of 60 μM, 3-fold dilution, 10 points) were prepared with reaction buffer. The medium in the 384-well black cell culture plate was discarded and changed to reaction buffer. 10 μL of 5% DMSO reaction buffer was added, and 10 μL of Fluo-8 staining mixture was then added. The plate was incubated in the dark in a 37° C., 5% CO2 incubator for 0.5 h.
4.6. FLIPR was correspondingly programmed, the 6×LPA gradient solutions were added, and readings were taken. Two-minute data were collected.
4.7. A reaction curve was obtained from the numerical values of LPA, and the concentration of LPA at EC80 was calculated. A 6×LPA solution was prepared in a 384-well plate (Cat. No. 6008590), and HPE and ZPE were added to corresponding wells. HPE (one hundred per cent effect) was 60 μM LPA, and ZPE (zero per cent effect) was reaction buffer.
4.8. Testing of compounds. The medium in the 384-well black cell culture plate was discarded and changed to reaction buffer. 10 μL of 5×compound solution was transferred using Bravo, and then 10 μL of Fluo-8 staining mixture was added immediately. The plate was incubated in the dark in a 37° C., 5% CO2 incubator for 0.5 h.
4.9. FLIPR was correspondingly programmed, the 6×LPA solution was added, and readings were taken. Two-minute data were collected.
4.10. Finally, the output fluorescence counts were analyzed, and IC50 was calculated for the compounds.

T1 sequence (Q92633 whole entry): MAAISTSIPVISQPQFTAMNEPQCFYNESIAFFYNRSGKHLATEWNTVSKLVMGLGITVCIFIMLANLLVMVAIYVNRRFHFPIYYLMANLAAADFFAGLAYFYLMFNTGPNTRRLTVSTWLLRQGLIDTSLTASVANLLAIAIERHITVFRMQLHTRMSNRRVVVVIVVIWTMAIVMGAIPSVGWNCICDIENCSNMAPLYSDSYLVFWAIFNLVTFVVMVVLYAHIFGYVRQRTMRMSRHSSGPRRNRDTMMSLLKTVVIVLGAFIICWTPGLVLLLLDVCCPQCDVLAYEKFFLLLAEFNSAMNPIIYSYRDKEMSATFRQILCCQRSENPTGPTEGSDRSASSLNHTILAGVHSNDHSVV

SMILES | IC50 [nM]
COCc1ccnc(OCc2c(-c3ccc(OC4CC5CCC(C)(C(=O)O)C5C4)c(C)n3)nnn2C)n1 (single isomer, unassigned) [Compound 14-P1, 5-((6-(5-(((4-(Methoxymethyl)pyrimidin-2-yl)oxy)methyl)-1-methyl-1H-1,2,3-triazol-4-yl)-2-methylpyridin-3-yl)oxy)-1-methyloctahydropentalene-1-carboxylic acid] | 41.5
COCc1ccnc(OCc2c(-c3ccc(OC4CC5CCC(C)(C(=O)O)C5C4)c(C)n3)nnn2C)n1 (single isomer, unassigned) [Compound 14-P2, 5-((6-(5-(((4-(Methoxymethyl)pyrimidin-2-yl)oxy)methyl)-1-methyl-1H-1,2,3-triazol-4-yl)-2-methylpyridin-3-yl)oxy)-1-methyloctahydropentalene-1-carboxylic acid] | > 10000
CCCN(C)C(=O)OCc1c(-c2ccc(O[C@H]3CCC[C@H](C(=O)O)C3)c(C)n2)nnn1C [BMS986278, reference compound] | 60.6
Cc1nc(-c2nnn(C)c2COc2nccc(C(F)(F)F)n2)ccc1OC1CC2CCC(C(=O)O)C2C1 (stereo not shown) [Compound 1, 5-((2-Methyl-6-(1-methyl-5-(((4-(trifluoromethyl)pyrimidin-2-yl)oxy)methyl)-1H-1,2,3-triazol-4-yl)pyridin-3-yl)oxy)octahydropentalene-1-carboxylic acid] | 16.7
Cc1nc(-c2nnn(C)c2COc2nccc(C(F)F)n2)ccc1OC1CC2CCC(F)(C(=O)O)C2C1 (stereo not shown) [Compound 6, 5-((6-(5-(((4-(Difluoromethyl)pyrimidin-2-yl)oxy)methyl)-1-methyl-1H-1,2,3-triazol-4-yl)-2-methylpyridin-3-yl)oxy)-1-fluorooctahydropentalene-1-carboxylic acid] | 39.6
Cc1nc(-c2nnn(C)c2COc2nccc(C(F)F)n2)ccc1OC1CC2CCC(C(=O)O)C2C1 (stereo not shown) [Compound 7, 5-((6-(5-(((4-(Difluoromethyl)pyrimidin-2-yl)oxy)methyl)-1-methyl-1H-1,2,3-triazol-4-yl)-2-methylpyridin-3-yl)oxy)octahydropentalene-1-carboxylic acid] | 93.9
Cc1nc(-c2nnn(C)c2COc2nccc(C(F)(F)F)n2)ccc1O[C@H]1CCC[C@H](C(=O)O)C1 [Compound 12, (1S,3S)-3-((2-Methyl-6-(1-methyl-5-(((4-(trifluoromethyl)pyrimidin-2-vl)oxy)methyl)-1H-1,2,3-triazol-4-yl)pyridin-3-yl)oxy)cyclohexane-1-carboxylic acid] | 75
